Test results taken from PubChem BioAssay AID2060511 (Molecular Pharmacology Branch, DTP, NCI, 2025).

System: 422866-222-R5-J1-PDC spheroids with HUVEC/MSC, viability
Assay: Anticancer human tumor 422866-222-R5-J1-PDC patient-derived pancreatic adenocarcinoma cell line growth inhibition [GQUAD]
Details: for IC50: curve of first compound; for viability, T/C: stronger effect = lower value
Text: DNA G-quadruplex Stabilizer Agents in Combinations in Complex Spheroids
A high-throughput screen of multi-cell type tumor spheroids was designed to identify active combinations of DNA G-quadruplex stabilizer agents and targeted small molecules. Complex spheroids include a stromal component modeled by human endothelial cells (HUVEC) and fibroblasts modeled by human mesenchymal stem cells (MSCs). The concentration ranges selected for each drug and investigational agent were based upon clinically achievable concentrations if the clinical Cmax of the agent was known.
Compounds. The drugs and investigational agents: pidnarulex (CX-5461; NSC782164), APTO-253 (NSC789042), BRACO-19 (NSC847499), peposertib (NSC802822), ceralasertib (NSC780249), elimusertib (NSC800525), camonsertib (NSC841442), AZD-1390 (NSC803789), olaparib (NSC753686), talazoparib (NSC767125), ART-558 (NSC835418), sotorasib (NSC818433), MRTX-1133 (NSC836407), SN-38 (NSC673596), topotecan (NSC609699), etoposide (NSC141540), doxorubicin (NSC123127), gemcitabine (NSC613327), 5-fluorouracil (NSC19893), paclitaxel (NSC125973), vemurafenib (NSC761431), panobinostat (NSC761190), R-306465 (JNJ-16241199; NSC773264), adavosertib (NSC754352), TP-3654 (NSC805149), carboplatin (NSC241240), KSQ-4279 (NSC840948), and staurosporine (NSC755774) were obtained from the National Cancer Institute (NCI) Developmental Therapeutics Program Chemical Repository (34). The FDA-approved anticancer drug set is available from the NCI Developmental Therapeutics Program. […] The stock solutions were prepared in dimethyl sulfoxide (DMSO, Sigma-Aldrich, St. Louis, MO, cat. D2650) at 800-fold the tested concentration and stored at -70 degrees C prior to their use. All drugs and investigational agents were tested over a range starting from a high concentration at or near the clinical Cmax and decreasing in half-log increments. If the clinical Cmax for an agent had not been determined, the highest concentration tested was 10 microM.
2.3 Cell Culture. All cells were maintained in an incubator at 37 degrees C and 5% CO2 with 95% humidity. The PDC lines were cultured according to standard operating procedures established by the NCI PDMR. All PDCs were thawed and cultured in Matrigel-coated flasks prepared with a working solution of 1X Ham's F-12 nutrient mix, without supplementation (Invitrogen, cat. 11765054), 100 U/mL penicillin-streptomycin (Invitrogen, cat. 15140122), and 2.5% Matrigel (Corning Inc., cat. 354248) for the first three passages. The 857933-349-R-J2-PDC line was cultured in 6C/Colon 1B media, which includes advanced DMEM/F-12 (Thermo Fisher Scientific, cat. 12634028), 10 mM HEPES (Thermo Fisher Scientific, cat. 15630080), 1X GlutaMAX supplement (Thermo Fisher Scientific, cat. 35050061), 0.1 mg/mL primocin (InvivoGen, cat. ant-pm-2), 10% defined fetal bovine serum, heat inactivated (HyClone Laboratories Inc., cat. SH30070.03HI), 50% L-WRN conditioned media (ATCC, cat. CRL-3276), 1.25 mM N-Acetyl-L-cysteine (Sigma-Aldrich, cat. A9165), 10 mM nicotinamide (Sigma-Aldrich, cat. N0636), 1X B-27 supplement (Thermo Fisher Scientific, cat. 17504044), 1X N-2 supplement (Thermo Fisher Scientific, cat. 17502048), 10 microM Y-27632 dihydrochloride (Tocris Bioscience, cat. 1254), and 50 ng/mL human EGF recombinant protein (Thermo Fisher Scientific, cat. PHG0311). The 485176-168-R4-J1-PDC line was cultured in Panc media, which includes all 6C/Colon 1B media components plus 100 ng/mL human FGF-10 (Thermo Fisher Scientific, cat. 100-26), 500 nM SB-431542 (Selleckchem, cat. S1067), and gastrin (Tocris, cat. 3006).
[…]

[1] = second compound 0.0316 µM, first compound 0.0316 µM
[2] = second compound 0.0316 µM, first compound 0.1 µM
[3] = second compound 0.0316 µM, first compound 0.316 µM
[4] = second compound 0.0316 µM, first compound 1 µM
[5] = second compound 0.0316 µM, first compound 3.16 µM
[6] = second compound 0.0316 µM, first compound 10 µM
[7] = second compound 0.1 µM, first compound 0.0316 µM
[8] = second compound 0.1 µM, first compound 0.1 µM
[9] = second compound 0.1 µM, first compound 0.316 µM
[10] = second compound 0.1 µM, first compound 1 µM
[11] = second compound 0.1 µM, first compound 3.16 µM
[12] = second compound 0.1 µM, first compound 10 µM
[13] = second compound 0.316 µM, first compound 0.0316 µM
[14] = second compound 0.316 µM, first compound 0.1 µM
[15] = second compound 0.316 µM, first compound 0.316 µM
[16] = second compound 0.316 µM, first compound 1 µM
[17] = second compound 0.316 µM, first compound 3.16 µM
[18] = second compound 0.316 µM, first compound 10 µM
[19] = second compound 1 µM, first compound 0.0316 µM
[20] = second compound 1 µM, first compound 0.1 µM
[21] = second compound 1 µM, first compound 0.316 µM
[22] = second compound 1 µM, first compound 1 µM
[23] = second compound 1 µM, first compound 3.16 µM
[24] = second compound 1 µM, first compound 10 µM
[25] = second compound 3.16 µM, first compound 0.0316 µM
[26] = second compound 3.16 µM, first compound 0.1 µM
[27] = second compound 3.16 µM, first compound 0.316 µM
[28] = second compound 3.16 µM, first compound 1 µM
[29] = second compound 3.16 µM, first compound 3.16 µM
[30] = second compound 3.16 µM, first compound 10 µM
[31] = second compound 10 µM, first compound 0.0316 µM
[32] = second compound 10 µM, first compound 0.1 µM
[33] = second compound 10 µM, first compound 0.316 µM
[34] = second compound 10 µM, first compound 1 µM
[35] = second compound 10 µM, first compound 3.16 µM
[36] = second compound 10 µM, first compound 10 µM
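Note: spheroids exposed to compounds for seven days before reading.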
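Throughout, for viability, T/C: percent viability relative to DMSO vehicle control taken as 100%.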

C=CCn1c(=O)c2cnc(Nc3ccc(N4CCN(C)CC4)cc3)nc2n1-c1cccc(C(C)(C)O)n1 + Cc1cnc(CNC(=O)c2c(=O)c3ccc(N4CCCN(C)CC4)nc3n3c2sc2ccccc23)cn1
IC50 (second compound 0.0316 µM): 0.31 µM
IC50 (second compound 0.1 µM): 0.545 µM
IC50 (second compound 0.316 µM): 1.32 µM
IC50 (second compound 1 µM): 2.27 µM
IC50 (second compound 3.16 µM): 3.24 µM
IC50 (second compound 10 µM): 2.78 µM
viability, T/C [1]: 86.8%
viability, T/C [2]: 70%
viability, T/C [3]: 51.6%
viability, T/C [4]: 35.2%
viability, T/C [5]: 29.1%
viability, T/C [6]: 34.2%
viability, T/C [7]: 89.2%
viability, T/C [8]: 71.9%
viability, T/C [9]: 54.1%
viability, T/C [10]: 45.5%
viability, T/C [11]: 38.5%
viability, T/C [12]: 36.7%
viability, T/C [13]: 85%
viability, T/C [14]: 80.2%
viability, T/C [15]: 63.5%
viability, T/C [16]: 52.4%
viability, T/C [17]: 43.6%
viability, T/C [18]: 34.2%
viability, T/C [19]: 74.7%
viability, T/C [20]: 74.2%
viability, T/C [21]: 64.8%
viability, T/C [22]: 57.3%
viability, T/C [23]: 46.2%
viability, T/C [24]: 44.8%
viability, T/C [25]: 82.8%
viability, T/C [26]: 64.5%
viability, T/C [27]: 65.5%
viability, T/C [28]: 62.4%
viability, T/C [29]: 51.4%
viability, T/C [30]: 39.6%
viability, T/C [31]: 72.9%
viability, T/C [32]: 73.4%
viability, T/C [33]: 70.8%
viability, T/C [34]: 60.8%
viability, T/C [35]: 49%
viability, T/C [36]: 42.3%

O=C(NO)c1cnc(N2CCN(S(=O)(=O)c3ccc4ccccc4c3)CC2)nc1 + Cc1cnc(CNC(=O)c2c(=O)c3ccc(N4CCCN(C)CC4)nc3n3c2sc2ccccc23)cn1
IC50 (second compound 0.0316 µM): 0.824 µM
IC50 (second compound 0.1 µM): 1.64 µM
IC50 (second compound 0.316 µM): 1.65 µM
IC50 (second compound 1 µM): 1.73 µM
IC50 (second compound 3.16 µM): 1.46 µM
IC50 (second compound 10 µM): 0.574 µM
viability, T/C [1]: 89.8%
viability, T/C [2]: 75.8%
viability, T/C [3]: 60.2%
viability, T/C [4]: 43%
viability, T/C [5]: 42%
viability, T/C [6]: 2.99%
viability, T/C [7]: 86.4%
viability, T/C [8]: 75.1%
viability, T/C [9]: 93.6%
viability, T/C [10]: 49.1%
viability, T/C [11]: 40.2%
viability, T/C [12]: 5.96%
viability, T/C [13]: 90.9%
viability, T/C [14]: 84%
viability, T/C [15]: 85.9%
viability, T/C [16]: 52.7%
viability, T/C [17]: 39.9%
viability, T/C [18]: 6.44%
viability, T/C [19]: 71.9%
viability, T/C [20]: 86.8%
viability, T/C [21]: 82.2%
viability, T/C [22]: 63.1%
viability, T/C [23]: 33.5%
viability, T/C [24]: 4.12%
viability, T/C [25]: 70.5%
viability, T/C [26]: 91.8%
viability, T/C [27]: 63.5%
viability, T/C [28]: 56.9%
viability, T/C [29]: 35.7%
viability, T/C [30]: 0.26%
viability, T/C [31]: 72.3%
viability, T/C [32]: 74.6%
viability, T/C [33]: 65.1%
viability, T/C [34]: 33.4%
viability, T/C [35]: 21%
viability, T/C [36]: 0.26%
